Data on one compound can be found in US11413315B2, “Neural stem cell-mediated cancer treatment” (priority 2018, dated 2022).

In one data set the test system is OVCAR8 peritoneal tumors. The data set can be described thus: PCR biodistribution of NSCs and virus in peritoneal tumors with or without cisplatin. Format: in vivo. As to conditions: 2 days after administration, three tumors per mouse. The procedure:
Female NOD-SCID mice (Jackson Labs) that were 6-8 weeks old were inoculated with 2 million OVCAR8.eGFP.ffluc cells via i.p. injection. After 3 weeks, mice (n=3) were administered i.p. 2×10^6 Dil-labeled NSC-CRAd-Survivin-pk7. Two days after NSC injection, tumors were harvested. Three tumors per mouse were digested using proteinase K, DNA was extracted (DNA Extraction from fixed tissues kit, Puragene), quantified using a nanodrop, then amplified by PCR using primers for v-Myc and hexon to test for the presence of NSCs and viral particles respectively. GAPDH was used as a loading control (351 bp). DNA purified from unmodified NSCs and NSC-CRAd-Survivin-pk7 was used as a positive control for PCR amplification of the v-Myc gene (replicon size 170 bp), and hexon (179 bp) respectively. Pure water was used as a negative control. PCR products were analyzed by agarose gel electrophoresis and staining of DNA bands with ethidium bromide. […] Sections (10 μm thick) were collected on positively charged slides (Thermo Fisher Scientific), immunostained for hexon (Goat Anti-Adenovirus FITC Conjugated Polyclonal Antibody, AB1056F, Millipore), counterstained with DAPI (1 ug/mL, Sigma), then imaged using the Zeiss Axio Observer Z1 fluorescence microscope (ZEISS Microscopy). […]

The subject of data set [1] is survivin expression in SKOV3 cell line. The data set is described as follows: RT-PCR analysis of survivin expression after cisplatin, SKOV3. As to conditions: up to 2 days of cisplatin exposure; data not shown. The format is cell-based, human.
Data set [2] concerns OVCAR8.EGFP flank xenografts. The data set can be described thus: Subcutaneous flank OVCAR8 xenograft model. The format is in vivo, mouse. The procedure:
Female athymic nude mice 6-8 weeks of age (Charles River) were maintained under specific pathogen-free conditions at the COH Animal Resource Center, and all procedures were reviewed and approved by the COH Animal Care Committee. A subcutaneous flank xenograft model in nude mice was established using an EGFP and firefly luciferase-expressing ovarian cancer cell line, 2×10^6 OVCAR8.EGFP.ffluc. […] The mice were treated for […] with 1 week off in between each cycle. […] Tumor burden was evaluated via caliper measurements twice weekly over a 5-week period.
Mice began treatments approximately 2 weeks after injection of 5 million OVCAR8.EGFP cells, when the tumors were on average 0.5 cm in diameter (Table 3). The mice were treated for two cycles. Each cycle was 2 weeks long, consisting of 1 week on therapy and 1 week off. Tumor burden was evaluated via caliper measurements twice weekly over a 5-week period.

The test system of another data set is OVCAR8.EGFP.ffluc cells. The data set can be described thus: In vitro synergy experiment, Chou-Talalay analysis. The format is cell-based, human. As to conditions: cisplatin <1 μM. The procedure: Tumor cells were plated at 3×10^3 cells per well in 96-well plates. Select wells also received NSC.CRAd-Survivin-pk7 at either a 1:1, 1:10, or 1:100 ratio. […] Cultures were incubated for 3 more days. Upon collection, media were replaced with that containing D-luciferin ([…]), and after a 10-min incubation, the resulting luminescent signal was quantified using a SpectraMax M3 microplate reader (Molecular Devices, CA, USA). Results are expressed as the percentage of surviving cells determined by comparing the luciferase signal of each sample relative to untreated control samples considered 100% viable. […] Each condition was replicated in quadruplet, and the experiment was conducted twice.

The subject of data set [3] is survivin expression in OVCAR8 cell line. The data set can be described thus: RT-PCR analysis of survivin expression after cisplatin, OVCAR8. The format is cell-based, human. As to conditions: up to 2 days of cisplatin exposure; data not shown.

`N.N.[Cl][Pt][Cl]` [cisplatin]: in the data set on OVCAR8 peritoneal tumors, the “hexon DNA detected in tumors (virus)” value is recorded as “Neither hexon nor v-myc DNA was detected” and the “v-myc DNA detected in tumors (NSCs)” value was “Neither hexon nor v-myc DNA was detected”. In data set [1], the “survivin expression after cisplatin exposure” value is recorded as “did not significantly increase”. The “tumor volume doubling time after the first treatment” value in data set [2] (control 7 days) turned out to be 13 days. Moreover, the “tumor volume doubling time after the second treatment” value in data set [2] (control 15 days) is recorded as “not significantly different from that of the saline control”. The “effect of low doses of cisplatin on OVCAR8 tumor cells” value in the data set with OVCAR8.EGFP.ffluc cells is reported as “unaffected”. Further, the “survivin expression after cisplatin exposure” value in data set [3] is “did not significantly increase”.
